# From PMC7370100, “In Vitro Assessment of the Genotoxic Hazard of Novel Hydroxamic Acid- and Benzamide-Type Histone Deacetylase Inhibitors (HDACi)” (International Journal of Molecular Sciences, 2020)
# What was measured:
# [1] = tested on: V79 cells
# Protocol: The formation of DNA strand breaks and apurinic/apyrimidinic sites was monitored employing the alkaline comet assay [87], which is part of the OECD guideline of in vivo genotoxicity testings and detects DNA strand breaks (DNA single- and double-strand breaks) and alkali-labile sites [87]. Briefly, after aspiration of the medium and trypsinization, cells were mixed with 0.5% melting agarose and transferred onto agarose-coated (1.5%) slides. After lysis in alkaline buffer (pH 10) (1 h, 4 °C, light protection) and unwinding of the DNA in precooled lysis buffer (pH >13) (20 min, 4 °C, light protection), electrophoresis was performed (electric current: 300 mA constant; 1 V/cm). After neutralization in salt buffer (pH 7.5) and staining with propidium iodide solution (50 µg/mL), comets were evaluated by fluorescence microscopy. Quantification of migrated DNA was performed with TriTek Comet Score™ software Version 1.5, evaluating ≥50 cells per condition (blinded assessment). […] Fold increase in tail intensities of treated cells were calculated by relating the % DNA in tail of treated cells to that of the corresponding untreated controls, which were set to 1.0 (see Figure 2B).
# [2] = tested on: V79 cells; remark: listed apart in the source
# Protocol: We analyzed the frequency of micronuclei in binucleated cells, as described [86]. Briefly, logarithmically growing cells were treated with cytochalasin B (3 µg/m) for 24 h. After fixation with formaldehyde (3.7% in PBS, 20 min, RT) and washing with PBS, cells were permeabilized using precooled methanol (20 min, −20 °C.) After washing with PBS and rinsing the cell layer with PBS containing Triton X100 (PBST; 0.3% Triton X100 in PBS), DNA was stained by DAPI (4´,6-diamino-2-phenylindole) and the number of micronuclei was evaluated by fluorescence microscopy. Data shown are the mean ± SEM of three independent experiments with ≥1000 binucleated cells evaluated per experimental condition.
# [3] = tested on: SH-SY5Y neuroblastoma cells; assay: Neutral red assay (cytotoxicity), SH-SY5Y cells; format: cell-based, human
# Protocol: (§1) V79 hamster lung cells, which are recommended in the OECD toxicology guidelines for hazard identification (i.e., cytotoxicity and genotoxicity) of chemicals, were purchased from the German Collection of Microorganisms and Cell Cultures (DSMZ, Braunschweig, Germany). They were cultured in Dulbecco´s modified Eagle medium and Ham´s F12 medium (DMEM/F12) (PromoCell, Heidelberg, Germany) containing 10% fetal calf serum at 37 °C in a humidified atmosphere containing 5% CO2. VC8 hamster cells were defective in DNA double-strand break (DSB) repair by homologous recombination (HR) due to the lack of functional BRCA2 protein [69, 70]. VC8 cells were provided by B. Kaina (Institute of Toxicology, Mainz, Germany). Nucleotide excision repair defective XPA and CSB deficient cells were also provided by B. Kaina and were described before. They were grown in DMEM containing 10% fetal calf serum. Human neuroblastoma cells (IMR-32 and SH-SY5Y) were purchased from the German Collection of Microorganisms and Cell Cultures (DSMZ, Braunschweig, Germany) and were used as a model of malignant cells. They were grown in DMEM or RPMI (Roswell park memorial institute) medium, respectively, containing 10% fetal calf serum. If not stated otherwise, HDACi were added to the exponentially growing cells and analyses were performed 6 h to 72 h later.
# (§2) Cell viability was determined using the Alamar blue assay, which reflected the mitochondrial activity. Viable cells were characterized by an effective mitochondrial metabolization of the non-fluorescent dye resazurin (Sigma, Steinheim, Germany) to fluorescent resorufin (excitation: 535 nm, emission: 590 nm). Relative viability in the untreated control was set to 100%. In addition, the Neutral red assay, which measures the integrity of lysosomal membranes, was used to monitor cytotoxicity. To this end, cells were incubated with the Neutral red solution (0.01%) in an atmosphere containing 5% CO2 for 90 min before they were fixed (1% formaldehyde/1% CaCl2). Afterwards, the Neutral red that was taken up by the cells was extracted (50% ethanol/1% of acetic acid, 15 min at room temperature (RT)) and absorbance (540 nm) was measured. If not stated otherwise, data are shown as the mean ± standard deviation (SD) of two to three independent experiments each performed in quadruplicate. Approximate IC50 (~IC50, see Supplementary Table S1) were calculated from the corresponding dose-response curves.
# [4] = tested on: SH-SY5Y neuroblastoma cells; assay: Alamar blue assay (cell viability), SH-SY5Y cells; format: cell-based, human
# Protocol: as §1, §2
# [5] = tested on: IMR-32 neuroblastoma cells; assay: Neutral red assay (cytotoxicity), IMR-32 cells; format: cell-based, human
# Protocol: as §1, §2
# [6] = tested on: V79 hamster lung cells; assay: Neutral red assay (cytotoxicity), V79 cells; format: cell-based
# Protocol: as §1, §2
# [7] = tested on: IMR-32 neuroblastoma cells; assay: Alamar blue assay (cell viability), IMR-32 cells; format: cell-based, human
# Protocol: as §1, §2
# [8] = tested on: V79 hamster lung cells; assay: Alamar blue assay (cell viability), V79 cells; format: cell-based; details: Alamar blue assay, approximate IC50
# Protocol: as §1, §2
# [9] = tested on: XPA-deficient cells; assay: Viability of XPA-deficient versus proficient fibroblasts (Alamar blue); format: cell-based, human; details: 72 h, in words
# Protocol: Figure 7 Sensitivity of nucleotide excision repair (NER) defective cells to hydroxamic acid- and benzamide-type HDACi. Viability of wild-type human fibroblasts and fibroblasts defective in nucleotide excision repair (NER) pathways (i.e., global genome nucleotide excision repair (GG-NER) or transcription-coupled nucleotide excision repair (TC-NER)) due to a defect in Xeroderma pigmentosum group A protein (XPA) or Cockayne syndrome protein B (CSB), respectively, was analyzed 72 h after the addition of HDACi by the Alamar blue assay, as described in Methods. The DNA intrastrand cross-linking agent cisplatin was used for control. Data shown are the mean ± SD from three independent experiments (n = 3) each performed in triplicate (N = 3); ns, not significant; *, p ≤ 0.05; **, p ≤ 0.01 as compared to the corresponding untreated controls (Student´s t-test).
# V79 hamster lung cells, which are recommended in the OECD toxicology guidelines for hazard identification (i.e., cytotoxicity and genotoxicity) of chemicals, were purchased from the German Collection of Microorganisms and Cell Cultures (DSMZ, Braunschweig, Germany). They were cultured in Dulbecco´s modified Eagle medium and Ham´s F12 medium (DMEM/F12) (PromoCell, Heidelberg, Germany) containing 10% fetal calf serum at 37 °C in a humidified atmosphere containing 5% CO2. VC8 hamster cells were defective in DNA double-strand break (DSB) repair by homologous recombination (HR) due to the lack of functional BRCA2 protein [69, 70]. VC8 cells were provided by B. Kaina (Institute of Toxicology, Mainz, Germany). Nucleotide excision repair defective XPA and CSB deficient cells were also provided by B. Kaina and were described before. […]
# Cell viability was determined using the Alamar blue assay, which reflected the mitochondrial activity. […] Afterwards, the Neutral red that was taken up by the cells was extracted (50% ethanol/1% of acetic acid, 15 min at room temperature (RT)) and absorbance (540 nm) was measured. […] Approximate IC50 (~IC50, see Supplementary Table S1) were calculated from the corresponding dose-response curves.
# [10] = tested on: VC8 hamster cells (BRCA1/2 defect); assay: Viability of DSB repair defective VC8 versus wild-type V79 cells (Alamar blue); format: cell-based; details: 72 h, Alamar blue, in words
# Protocol: as §1, §2
# [11] = 24 h, approximate IC50, read-out: IC50 - 24 h Treatment, SH-SY5Y
# [12] = 72 h, approximate IC50, read-out: IC50 - 72 h Treatment, SH-SY5Y
# [13] = 24 h, approximate IC50, read-out: IC50 - 24 h Treatment, IMR-32
# [14] = 72 h, approximate IC50, read-out: IC50 - 72 h Treatment, IMR-32
smiles,measurement,setting,value
"COS(C)(=O)=O [MMS, methyl methanesulfonate]",DNA strand breaks (comet assay),[1],substantially increased the level of DNA strand breaks
same,Mean (% DNA in tail),"[1]; hamster, 0.25 mM",50.9 % DNA in tail
same,frequency of micronuclei,[2],substantial clastogenicity
CCCCON(Cc1ccc(C(=O)NO)cc1)C(=O)Nc1cc(C)cc(C)c1 [MPK264],IC50,[3]; [11],24 µM
same,IC50,[3]; [12],3 µM
same,IC50,[4]; [11],10 µM
same,IC50,[4]; [12],3 µM
same,IC50,[5]; [13],16 µM
same,IC50,[5]; [14],2 µM
same,IC50,"[6]; 24 h, approximate IC50, read-out: IC50 - 24 h Treatment, V79",20 µM
same,IC50,"[6]; 72 h, approximate IC50, read-out: IC50 - 72 h Treatment, V79",17 µM
same,IC50,[7]; [13],12 µM
same,IC50,[7]; [14],2 µM
same,IC50,"[8]; 24 h, read-out: IC50 - 24 h Treatment, V79",22 µM
same,IC50,"[8]; 72 h, read-out: IC50 - 72 h Treatment, V79",19 µM
N.N.[Cl][Pt][Cl] [cisplatin],sensitivity of XPA-deficient versus XPA proficient cells,[9],XPA deficient cells are hypersensitive
Nc1ccccc1NC(=O)c1ccc(CNc2nccc(-c3cccnc3)n2)cc1 [mocetinostat],sensitivity of VC8 cells versus V79 cells,[10],hypersensitive
C/C=C1\NC(=O)[C@H]2CSSCC/C=C/[C@H](CC(=O)N[C@H](C(C)C)C(=O)N2)OC(=O)[C@H](C(C)C)NC1=O [romidepsin],sensitivity of VC8 cells versus V79 cells,[10],hypersensitive
